In patent US11555041B2, “Bridged bicyclic inhibitors of menin-MLL and methods of use” (Kura Oncology, Inc., priority 2016, dated 2023):
Read-outs that look alike come from different tables or passages of the source.

Tests used:
[1] = biological target: T1, menin-MLL interaction (Menin MLL 4-43) (Homo sapiens, UniProt O00255); assay: Fluorescence polarization (FP) competition assay; type: binding
T1 sequence (O00255 1-610): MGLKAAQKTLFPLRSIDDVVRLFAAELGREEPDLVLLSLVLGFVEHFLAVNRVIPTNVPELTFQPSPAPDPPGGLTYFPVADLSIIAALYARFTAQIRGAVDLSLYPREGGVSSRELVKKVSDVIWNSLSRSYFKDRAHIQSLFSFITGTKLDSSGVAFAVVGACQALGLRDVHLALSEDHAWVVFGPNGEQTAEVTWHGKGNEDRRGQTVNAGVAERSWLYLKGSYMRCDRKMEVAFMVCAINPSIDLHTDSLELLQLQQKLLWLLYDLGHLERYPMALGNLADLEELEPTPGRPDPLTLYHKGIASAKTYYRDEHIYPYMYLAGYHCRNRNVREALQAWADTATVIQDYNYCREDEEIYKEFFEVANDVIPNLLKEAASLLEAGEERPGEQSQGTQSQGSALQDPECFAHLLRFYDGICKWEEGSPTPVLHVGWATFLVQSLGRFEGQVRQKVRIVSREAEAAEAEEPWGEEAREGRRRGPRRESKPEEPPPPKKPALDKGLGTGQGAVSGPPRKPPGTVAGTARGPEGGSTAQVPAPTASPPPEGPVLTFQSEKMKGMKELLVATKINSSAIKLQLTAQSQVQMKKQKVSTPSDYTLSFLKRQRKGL

[2] = test system: MV4;11 (human leukemia) tumor; assay: Efficacy study in mouse xenograft tumor model; type: in vivo; conditions: female nude mice, subcutaneous MV4;11, oral gavage 150 mg/kg bid
Protocol: Immunocompromised 8-10 week-old female nude (nu/nu) mice were used for in vivo efficacy studies in accordance with IACUC guidelines. Human MV4;11 leukemia cells available from ATCC were implanted subcutaneously into female nude mice (5×10^6 cells/mouse). When the tumor reached a size of approximately 150 to 250 mm^3, the tumor-bearing mice were randomly assigned to a vehicle control or a compound treatment group (8 mice per group). Mice in the treatment group were administered a compound of the present disclosure by oral gavage (150 mg/kg, bid). Subcutaneous tumor volume and mouse body weight were measured twice weekly. Tumor volumes were calculated by measuring two perpendicular diameters with calipers (V=(length×width^2)/2). […] As used in the Examples and Figures herein, Compound B refers to Compound 82 in Table 1.

MV4;11 cells = assay: MTT cell proliferation assay; type: cell-based; conditions: Homo sapiens
Protocol: The ability of a compound of the present disclosure to inhibit the growth of cells was tested in MLL leukemia cell lines (e.g., MV4;11) using the MTT cell proliferation assay (ATCC® 30-1010K). […] Cells were plated at about 1×10^5 cells per well in a 96-well plate. A compound of the present disclosure was added at a concentration up to about 2 μM with seven, 2-fold serial dilutions for each compound. Cells were incubated at 37° C. for 72 hours, then cells in the control wells were counted. Media was changed to restore viable cell numbers to the original concentration, and compounds were re-supplied. Proliferation was measured 96 hours later using MTT reagents, as per kit instructions. […] As used in the Examples and Figures herein, Compound A refers to Compound 3 in Table 1.

[3] = fluorescence polarization assay, read-out: Menin MLL 4-43 IC50
[4] = measured in accordance with Example 8, read-out: IC50 value (ability of the compound to disrupt the menin-MLL interaction)

Row | Structure (SMILES) | IC50 [1, 3] | further results
1 | Cc1c(CN2CCC(Nc3ncnc4sc(CC(F)(F)F)cc34)CC2)ccc2c1cc(C#N)n2CC12CC(NC(=O)C3CCCN3C)(C1)C2 (stereo not drawn) [Compound 58] | < 50 nM | –
2 | Cc1c(CN2CCC(Nc3ncnc4sc(CC(F)(F)F)cc34)CC2)ccc2c1cc(C#N)n2CC12CC(NC(=O)C(O)CO)(C1)C2 (stereo not drawn) [Compound 67] | 50 to 250 nM | –
3 | Cc1c(CN2CCC(Nc3ncnc4sc(CC(F)(F)F)cc34)CC2)ccc2c1cc(C#N)n2CC12CC(NC(=O)CNC=O)(C1)C2 [Compound 33] | 250 to 1000 nM | –
4 | CNc1nc(NC2CCN(Cc3ccc4c(cc(C#N)n4CC45CC(NC(=O)Cc6cccc(N)c6)(C4)C5)c3C)CC2)c2cc(CC(F)(F)F)sc2n1 [Compound 79] | < 50 nM | –
5 | CNc1nc(NC2CCN(Cc3ccc4c(cc(C#N)n4CC45CC(NC(C)=O)(C4)C5)c3C)CC2)c2cc(CC(F)(F)F)sc2n1 [Compound 82] | < 50 nM | IC50 [1, 4]: ≤ 50 nM; MV4;11 tumor growth (tumor volume) relative to vehicle control [2]: inhibited tumor growth and induced tumor regression
6 | Cc1c(CN2CCC(Nc3ncnc4sc(CC(F)(F)F)cc34)CC2)ccc2c1cc(C#N)n2CC12CC(NC(=O)CN)(C1)C2 [Compound 17] | < 50 nM | –
7 | CCC(=O)NC12CC(Cn3c(C#N)cc4c(C)c(CN5CCC(Nc6ncnc7sc(CC(F)(F)F)cc67)CC5)ccc43)(C1)C2 [Compound 3] | 50 to 250 nM | IC50 [1, 4]: ≤ 50 nM; GI50 (MV4;11 cells): 40 nM; MV4;11 tumor growth (tumor volume) relative to vehicle control [2]: inhibited tumor growth and induced tumor regression
8 | CC[C@@H](N)C(=O)NC12CC(Cn3c(C#N)cc4c(C)c(CN5CCC(Nc6ncnc7sc(CC(F)(F)F)cc67)CC5)ccc43)(C1)C2 [Compound 71] | < 50 nM | –
9 | Cc1c(CN2CCC(Nc3ncnc4sc(CC(F)(F)F)cc34)CC2)ccc2c1cc(C#N)n2CC12CC(NC(=O)C(C)N)(C1)C2 (stereo not drawn) [Compound 64] | < 50 nM | –
10 | Cc1c(CN2CCC(Nc3ncnc4sc(CC(F)(F)F)cc34)CC2)ccc2c1cc(C#N)n2CC12CC(NC(=O)CN3CCCC3)(C1)C2 [Compound 57] | < 50 nM | –
11 | Cc1c(CN2CCC(Nc3ncnc4sc(CC(F)(F)F)cc34)CC2)ccc2c1cc(C#N)n2CC12CC(N(C3CC3)C3CC3)(C1)C2 [Compound 49] | > 1000 nM | –
12 | CNC(=O)NC12CC(Cn3c(C#N)cc4c(C)c(CN5CCC(Nc6ncnc7sc(CC(F)(F)F)cc67)CC5)ccc43)(C1)C2 [Compound 7] | < 50 nM | –
13 | Cc1c(CN2CCC(Nc3ncnc4sc(CC(F)(F)F)cc34)CC2)ccc2c1cc(C#N)n2CC12CC(NC(=O)c3cnc[nH]3)(C1)C2 [Compound 38] | 50 to 250 nM | –
